The values that follow come from ChEMBL document CHEMBL3091409, “Potent P2Y1 urea antagonists bearing various cyclic amine scaffolds” (Bioorg Med Chem Lett, 2013).

In brackets after ≈: the same amount, converted by molar mass.

One data set has as its target P2Y purinoceptor 1 (Homo sapiens, UniProt P47900). Kind of data set: Displacement of [beta-33P]-2MeS-ADP from human P2Y1 receptor transfected in HEK293 cells after 1 hr by scintillation counting method. It counts as cell-based.
In a further data set the test system is Platelet. The experiment in a line: Inhibition of ADP-induced platelet aggregation in human platelet rich plasma. The class given is functional.
Data set [1] is described as follows: Metabolic stability in rat liver microsomes assessed as compound remaining after 10 mins. The note with it: read-out: Stability. The class given is ADME. A general note: Liver microsomes are a subcellular fraction often used to study metabolism.
A short description of data set [2]: Aqueous solubility of the compound in amorphous form in […] phosphate buffer at pH 6.5. The class given is physicochemical.
The target in data set [3] is Voltage-gated inwardly rectifying potassium channel KCNH2 (Homo sapiens, UniProt Q12809). Kind of data set: Inhibition of human ERG flux.
Voltage-gated inwardly rectifying potassium channel KCNH2, sequence (Q12809 whole entry): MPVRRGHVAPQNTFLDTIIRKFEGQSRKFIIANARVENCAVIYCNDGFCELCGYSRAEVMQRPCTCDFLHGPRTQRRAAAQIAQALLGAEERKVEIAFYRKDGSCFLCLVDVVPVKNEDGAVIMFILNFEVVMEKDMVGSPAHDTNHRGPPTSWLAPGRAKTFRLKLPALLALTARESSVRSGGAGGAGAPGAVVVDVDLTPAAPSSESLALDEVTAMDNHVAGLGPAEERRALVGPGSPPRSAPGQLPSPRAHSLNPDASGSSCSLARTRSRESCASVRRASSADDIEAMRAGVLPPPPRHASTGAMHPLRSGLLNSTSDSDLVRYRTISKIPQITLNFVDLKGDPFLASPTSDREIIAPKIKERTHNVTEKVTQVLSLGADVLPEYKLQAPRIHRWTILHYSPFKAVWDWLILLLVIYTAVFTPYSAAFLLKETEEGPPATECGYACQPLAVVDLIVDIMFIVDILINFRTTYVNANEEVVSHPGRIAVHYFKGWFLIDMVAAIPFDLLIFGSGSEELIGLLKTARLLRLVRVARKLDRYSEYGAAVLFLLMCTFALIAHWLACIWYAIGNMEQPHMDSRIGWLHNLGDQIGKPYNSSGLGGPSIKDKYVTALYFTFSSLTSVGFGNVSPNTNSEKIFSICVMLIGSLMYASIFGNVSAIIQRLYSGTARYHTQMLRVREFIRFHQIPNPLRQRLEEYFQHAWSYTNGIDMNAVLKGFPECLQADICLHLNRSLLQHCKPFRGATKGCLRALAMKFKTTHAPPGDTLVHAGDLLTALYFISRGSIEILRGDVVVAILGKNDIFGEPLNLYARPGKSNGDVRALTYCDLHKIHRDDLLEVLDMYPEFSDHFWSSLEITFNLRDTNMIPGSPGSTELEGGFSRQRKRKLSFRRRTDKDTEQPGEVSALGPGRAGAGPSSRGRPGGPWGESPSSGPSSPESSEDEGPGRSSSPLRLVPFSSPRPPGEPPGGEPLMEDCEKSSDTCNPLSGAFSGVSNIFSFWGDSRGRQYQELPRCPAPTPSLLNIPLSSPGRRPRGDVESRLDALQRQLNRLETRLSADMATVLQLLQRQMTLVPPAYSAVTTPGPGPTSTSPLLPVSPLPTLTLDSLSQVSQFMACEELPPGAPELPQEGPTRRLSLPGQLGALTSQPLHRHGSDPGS
Data set [4] in a line: Permeability from apical to basolateral side of human Caco2 cells. The class given is ADME, cell-based. The note with it: Caco-2, read-out: permeability. Background: Caco-2 cells form a polarised layer with tight junctions and transporters.
Data set [5] is described as follows: Plasma protein binding in human plasma. The class given is ADME, cell-free. The note with it: read-out: PPB (converted).
A short description of data set [6]: Permeability of the compound by PAMPA. The class given is ADME. The note with it: read-out: permeability.
Data set [7] is described as follows: Half life in rat at 2 mg/kg, iv and 5 mg/kg, po. The class given is ADME, organism-based. To be noted: in vivo.
Data set [8] concerns the target D(2) dopamine receptor (Homo sapiens) (UniProt P14416). The experiment in a line: Inhibition of D2 receptor (unknown origin). To be noted: concentration not given here.
Data set [9] is described as follows: Aqueous solubility of the compound in partially crystalline form in […] phosphate buffer at pH 6.5. The class given is physicochemical.
Data set [10] has as its target Sodium-dependent noradrenaline transporter (Homo sapiens) (UniProt P23975). The experiment in a line: Inhibition of NET (unknown origin). The note with it: concentration not given here.
The nature of data set [11]: Volume of distribution at steady state in rat at 2 mg/kg, iv and 5 mg/kg, po. It counts as ADME, organism-based. To be noted: in vivo, read-out: Vdss.
Data set [12] has as its target 5-hydroxytryptamine receptor 2A (Homo sapiens) (UniProt P28223). Kind of data set: Inhibition of 5-HT2A receptor (unknown origin). To be noted: concentration not given here.
A short description of data set [13]: Oral bioavailability in rat at 5 mg/kg. The class given is ADME, organism-based. The note with it: in vivo.
Data set [14] in a line: Clearance in rat at 2 mg/kg, iv and 5 mg/kg, po. To be noted: in vivo. It counts as ADME, organism-based.
The nature of data set [15]: Aqueous solubility of the compound in crystalline form in […] phosphate buffer at pH 6.5. It counts as physicochemical.

P2Y purinoceptor 1, sequence (P47900 whole entry): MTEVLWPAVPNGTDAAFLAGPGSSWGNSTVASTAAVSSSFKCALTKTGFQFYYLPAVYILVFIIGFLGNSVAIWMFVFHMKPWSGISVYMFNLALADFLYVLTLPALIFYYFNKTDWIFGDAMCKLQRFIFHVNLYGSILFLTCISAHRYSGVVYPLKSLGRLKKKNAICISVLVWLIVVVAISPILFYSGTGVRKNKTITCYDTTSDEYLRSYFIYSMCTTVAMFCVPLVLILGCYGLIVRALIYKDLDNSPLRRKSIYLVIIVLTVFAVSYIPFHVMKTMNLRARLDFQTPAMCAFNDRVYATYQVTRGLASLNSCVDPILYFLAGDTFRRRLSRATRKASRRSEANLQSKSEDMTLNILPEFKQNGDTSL
5-hydroxytryptamine receptor 2A (Homo sapiens), sequence (P28223 whole entry): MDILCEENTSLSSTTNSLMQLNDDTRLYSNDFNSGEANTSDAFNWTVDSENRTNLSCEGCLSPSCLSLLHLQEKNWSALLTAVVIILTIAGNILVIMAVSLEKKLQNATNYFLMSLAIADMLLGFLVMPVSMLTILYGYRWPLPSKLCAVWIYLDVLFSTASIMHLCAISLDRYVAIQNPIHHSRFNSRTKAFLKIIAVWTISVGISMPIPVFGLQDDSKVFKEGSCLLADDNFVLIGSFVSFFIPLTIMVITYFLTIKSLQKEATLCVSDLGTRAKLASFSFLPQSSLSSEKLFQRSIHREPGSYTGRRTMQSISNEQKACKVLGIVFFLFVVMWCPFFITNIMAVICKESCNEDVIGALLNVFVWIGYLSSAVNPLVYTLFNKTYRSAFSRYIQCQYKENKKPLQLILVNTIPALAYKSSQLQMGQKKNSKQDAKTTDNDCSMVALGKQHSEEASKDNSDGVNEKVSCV
Sodium-dependent noradrenaline transporter (Homo sapiens), sequence (P23975 whole entry): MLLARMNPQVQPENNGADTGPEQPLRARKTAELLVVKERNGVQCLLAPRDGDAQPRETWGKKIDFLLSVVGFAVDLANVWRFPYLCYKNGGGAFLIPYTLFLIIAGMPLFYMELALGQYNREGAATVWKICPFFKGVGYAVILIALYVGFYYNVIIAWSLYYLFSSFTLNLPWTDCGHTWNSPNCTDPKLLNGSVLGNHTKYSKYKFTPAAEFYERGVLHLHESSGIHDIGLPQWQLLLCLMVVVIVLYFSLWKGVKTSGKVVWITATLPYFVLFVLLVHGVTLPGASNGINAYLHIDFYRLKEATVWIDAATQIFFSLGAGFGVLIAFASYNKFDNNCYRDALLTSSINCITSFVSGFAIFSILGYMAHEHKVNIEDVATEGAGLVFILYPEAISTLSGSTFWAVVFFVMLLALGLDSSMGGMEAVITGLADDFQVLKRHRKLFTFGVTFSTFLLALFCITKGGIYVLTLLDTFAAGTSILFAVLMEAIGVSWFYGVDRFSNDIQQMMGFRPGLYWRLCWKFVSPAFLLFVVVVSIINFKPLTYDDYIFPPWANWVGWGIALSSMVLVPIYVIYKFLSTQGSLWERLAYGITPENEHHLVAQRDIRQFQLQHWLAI
D(2) dopamine receptor (Homo sapiens), sequence (P14416 whole entry): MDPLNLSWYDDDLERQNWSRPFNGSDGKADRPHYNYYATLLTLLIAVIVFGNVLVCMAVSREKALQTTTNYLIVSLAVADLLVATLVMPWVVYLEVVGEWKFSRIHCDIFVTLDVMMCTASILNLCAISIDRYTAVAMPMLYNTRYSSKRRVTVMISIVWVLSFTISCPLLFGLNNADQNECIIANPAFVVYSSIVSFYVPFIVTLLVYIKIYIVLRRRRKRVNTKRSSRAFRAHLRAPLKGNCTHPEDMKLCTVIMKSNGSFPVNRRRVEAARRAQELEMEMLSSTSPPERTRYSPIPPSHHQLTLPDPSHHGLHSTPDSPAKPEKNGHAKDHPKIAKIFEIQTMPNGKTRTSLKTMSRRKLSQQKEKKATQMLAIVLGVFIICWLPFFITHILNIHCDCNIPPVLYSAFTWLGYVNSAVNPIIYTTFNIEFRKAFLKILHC

On P2Y purinoceptor 1, `O=C(Nc1ccc(OC(F)(F)F)cc1)Nc1cccnc1Oc1cccc2c1CCN(Cc1ccccc1O)C2` returned a Ki of 260 nM.
Same read-out and setting: the result for `O=C(Nc1ccc(OC(F)(F)F)cc1)Nc1cccnc1Oc1cccc2c1CCN(Cc1ccncc1)C2` reads 1040 nM; that for `O=C(Nc1ccc(OC(F)(F)F)cc1)Nc1cccnc1Oc1cccc2c1CCN(Cc1ccccc1)C2`, 55 nM; that for `O=C(Nc1ccc(OC(F)(F)F)cc1)Nc1cccnc1Oc1cccc2c1CCN(Cc1cccc(O)c1)C2`, 2200 nM.
Turning to `O=C(Nc1ccc(OC(F)(F)F)cc1)Nc1cccnc1Oc1cccc2c1CCN(Cc1ccc(O)cc1)C2`, at P2Y purinoceptor 1, the affinity, expressed as Ki, was 3400 nM.
Compound `CC(C)N1CCc2c(cccc2Oc2ncccc2NC(=O)Nc2ccc(OC(F)(F)F)cc2)C1` returned a Ki on P2Y purinoceptor 1 of 560 nM.
The compound `CC(C)(C)CN1Cc2cccc(Oc3ncccc3NC(=O)Nc3ccc(OC(F)(F)F)cc3)c2C1` showed an IC50 with Platelet greater than 10 µM. Besides, the affinity at P2Y purinoceptor 1 corresponds to a Ki of 29 nM.
Compound `O=C(Nc1ccc(OC(F)(F)F)cc1)Nc1cccnc1Oc1cccc2c1CCN(CCc1ccccc1)C2` had a Ki on P2Y purinoceptor 1 of 290 nM.
Consider `O=C(Nc1ccc(OC(F)(F)F)cc1)Nc1cccnc1Oc1ccccc1C1CCN(Cc2ccccc2)CC1`, for which the IC50 with Platelet amounted to 12.7 µM. This compound returned a Ki at P2Y purinoceptor 1 of 98 nM.
At P2Y purinoceptor 1, `CC(C)(C)CCN1CCc2c(cccc2Oc2ncccc2NC(=O)Nc2ccc(OC(F)(F)F)cc2)C1` registered a Ki of 190 nM.
In the case of `CC(C)CN1CCc2c(cccc2Oc2ncccc2NC(=O)Nc2ccc(OC(F)(F)F)cc2)C1`, the affinity on P2Y purinoceptor 1, expressed as Ki, was 60 nM.
In the case of `CN1Cc2cccc(Oc3ncccc3NC(=O)Nc3ccc(OC(F)(F)F)cc3)c2C1`, the Ki at P2Y purinoceptor 1 came out at 3700 nM.
Consider `CN1Cc2cccc(Oc3ncccc3NC(=O)Nc3ccc(OC(F)(F)F)cc3)c2C1C(C)(C)C` (stereo not given), for which the remaining at 10 min in data set [1] amounted to 6%. The amount in solution in [2] (solubility) came to 270 µg/mL (≈ 539 µM). The figures for the IC50 (in data set [3]; in the data set on Platelet) were 7.2 µM and 1.2 µM, respectively. Moreover, the Papp A→B in [4] is less than 1.5 ×10⁻⁶ cm/s. Also, the Ki at P2Y purinoceptor 1 amounted to 57 nM. In addition, the fraction unbound in data set [5] is 0.003. Besides, in data set [6], the Papp is 78.4 ×10⁻⁶ cm/s.
With `CCCN1CCc2c(cccc2Oc2ncccc2NC(=O)Nc2ccc(OC(F)(F)F)cc2)C1`, affinity at P2Y purinoceptor 1 was put at a Ki of 620 nM.
The same measure, in the same setting: the result for `CCN1CCc2c(cccc2Oc2ncccc2NC(=O)Nc2ccc(OC(F)(F)F)cc2)C1` reads 1700 nM.
The compound `CC(C)CN1Cc2cccc(Oc3ncccc3NC(=O)Nc3ccc(OC(F)(F)F)cc3)c2C1` came in with an IC50 with Platelet greater than 10 µM. Also, the Ki at P2Y purinoceptor 1 was 68 nM.
`CC(C)(C)CN1CCC(c2ccccc2Oc2ncccc2NC(=O)Nc2ccc(OC(F)(F)F)cc2)CC1` had a half-life in data set [7] of 660 min. For the same compound, the remaining at 10 min in [1] was found to be 96%. Moreover, the inhibition in data set [8], in [10] and in data set [12] was greater than 50% in each case. Besides, the concentration in solution in data set [9] (solubility) came to 105 µg/mL (≈ 194 µM). Moreover, the IC50 is 4.6 µM in data set [3] and 2.4 µM in the data set on Platelet. Further, the Ki on P2Y purinoceptor 1 is 16 nM. The fraction unbound in data set [5] is 0.001. For the same compound, the Vd in data set [11] worked out at 14 L/kg. The compound also had a bioavailability in data set [13] of 89%. The same compound yielded a clearance in data set [14] of 18 mL/min/kg. Also, the Papp in data set [6] was determined as 28.6 ×10⁻⁶ cm/s.
Turning to `O=C(Nc1ccc(OC(F)(F)F)cc1)Nc1cccnc1Oc1cccc2c1CCN(Cc1cccnc1)C2`, the inhibition constant (Ki) at P2Y purinoceptor 1 came out at 1200 nM.
For `CC(C)(C)CN1CCc2c(cccc2Oc2ncccc2NC(=O)Nc2ccc(OC(F)(F)F)cc2)C1`, the remaining at 10 min in data set [1] was determined as 27%. In the data set on Platelet, the IC50 amounted to 3.1 µM. In addition, the concentration in solution in [15] (solubility) came to 3 µg/mL (≈ 5.83 µM). Also, the Ki on P2Y purinoceptor 1 is 11 nM.
At P2Y purinoceptor 1, `O=C(Nc1ccc(OC(F)(F)F)cc1)Nc1cccnc1Oc1cccc2c1CCN(Cc1ccccn1)C2` yielded a Ki of 1100 nM.
Still for that read-out and setting: the result for `O=C(Nc1ccc(OC(F)(F)F)cc1)Nc1cccnc1Oc1cccc2c1CCNC2` reads 3000 nM.
On to `CC(C)CN1CCC(c2ccccc2Oc2ncccc2NC(=O)Nc2ccc(OC(F)(F)F)cc2)CC1`, for which the IC50 in data set [3] is 6 µM; in the data set on Platelet, 7.6 µM. Besides, the Ki at P2Y purinoceptor 1 was found to be 150 nM.

In general, Ki refers to a dissociation constant, usually derived from enzyme kinetics or from competition with a known ligand. Higher therefore signals weaker binding. The term IC50 denotes the point on the concentration scale where inhibition reaches its midpoint. Higher therefore signals weaker potency in that assay. Broadly, the solubility is how much of the substance goes into solution per volume. Low readings indicate a poorly soluble substance, high ones a readily soluble substance. In general, half-life refers to how long it takes for the measured level to halve. The low end stands for fast loss, the high end for slow loss. For orientation: inhibition means the change of the read-out against control, counted positive when it falls. Low values mean little suppression, high ones strong suppression. The term bioavailability denotes dose-corrected exposure relative to a reference, in per cent. A higher bioavailability goes with much systemic uptake.
